Test results published in US9683025B2, “Methods and compositions for treating cancer and inflammatory diseases” (The Regents of the University of Colorado, A Body Corporate, priority 2013, dated 2017).
“Also recorded” adds a separate entry of the source.

Columns and labels:
[1] = tested on: H1299 non-small cell lung carcinoma cells; assay: Cell viability, H1299; type: cell-based, human; details: H1299, CtBP overexpressing, FIG. 5
Text: (§1) The Tat peptide alone has no effect on these cells.

[2] = tested on: 3T3 cells; assay: Cell viability, 3T3; type: cell-based, mouse; details: 3T3, does not significantly overexpress CtBP, FIG. 5
Text: as §1

[3] = tested on: A375 melanoma cells; assay: Cell viability, A375; type: cell-based; details: A375, CtBP overexpressing, FIG. 5
Text: as §1

[4] = tested on: IMQ-based psoriasis model; assay: IMQ-based psoriasis model; type: in vivo, mouse; details: FIG. 15B, versus PBS
[5] = tested on: IMQ-based psoriasis model; assay: IMQ-based psoriasis model; type: in vivo, mouse
Procedure: To elucidate the molecular mechanisms for the Pep1-E1A blocker, H&E and immunostaining for proliferative and inflammatory markers was performed.

Sequence	cell viability [1]	cell viability [2]	cell viability [3]	erythema, thickening and scaling (cumulative score) [4]	psoriasis-like phenotype ([5]; applied on the skin (data not shown))	IMQ-induced epithelial hyperplasia and inflammatory cell infiltration in the stroma (H&E) ([5]; compared to PBS-treated skin, FIG. 7A)	BrdU incorporation (proliferation) ([5]; immunostaining, FIG. 7B)	CD45 staining (inflammation) ([5]; immunostaining, FIG. 7B)	psoriasis-like phenotype ([5]; injected subcutaneously, FIG. 7)	resistance to IMQ-induction of psoriasis ([5]; treated mice versus PBS control)
GRKKRRQRRRPPQ [Tat, cell penetrating peptide alone, control, reference compound]	no effect	no effect	no effect							
KETWWETWWTEWSQPKKKRKVLEEPGQPLDLSCKRPR [Pep1-E1A]				Reduction	largely reduced	decreases	largely reduced; also recorded: decreased	largely prevented; also recorded: decreased	largely reduced	showed resistance
